Measurements: patent publication US11279687B2, “Compounds and compositions for the inhibition of NAMPT” (Valo Health, Inc., priority 2010, dated 2022)
Where two headings read alike, the source gives them in different places.

What was measured:
NAMPT = NAMPT (Homo sapiens (Human), UniProt P43490); assay: NAMPT biochemical inhibition assay (NMN quantified by mass spectrometry); details: NAMPT biochemical inhibition; read-out: Biochem IC50
A2780 cells = assay: In-vitro cell proliferation assay (SRB), A2780 cells; type: cell-based; details: A2780 cells, 72 hours, SRB, read-out: A2780 IC50;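 further: viable cell number read as SRB absorbance, background from media-only wells subtracted, IC50 interpolated from percent inhibition at two bracketing compound concentrations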

Chain of NAMPT (P43490 whole entry): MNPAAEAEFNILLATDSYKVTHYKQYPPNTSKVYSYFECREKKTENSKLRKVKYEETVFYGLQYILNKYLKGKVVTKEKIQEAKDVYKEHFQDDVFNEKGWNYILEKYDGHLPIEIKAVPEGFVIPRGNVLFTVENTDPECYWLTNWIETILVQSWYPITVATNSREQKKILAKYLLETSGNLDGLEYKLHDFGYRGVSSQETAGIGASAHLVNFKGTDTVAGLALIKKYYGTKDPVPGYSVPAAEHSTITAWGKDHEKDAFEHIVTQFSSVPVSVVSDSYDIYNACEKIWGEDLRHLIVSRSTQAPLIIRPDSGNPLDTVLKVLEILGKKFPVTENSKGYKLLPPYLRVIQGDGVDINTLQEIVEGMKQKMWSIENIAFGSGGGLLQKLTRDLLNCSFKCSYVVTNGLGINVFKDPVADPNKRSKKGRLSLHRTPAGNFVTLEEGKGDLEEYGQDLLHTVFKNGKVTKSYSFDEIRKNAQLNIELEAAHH

| Compound | IC50 (NAMPT) | IC50 (A2780 cells; Homo sapiens, A2780, 72 h) | IC50 (A2780 cells) |
| --- | --- | --- | --- |
| O=C(NCc1cccnc1)Nc1ccc(S(=O)(=O)N2CCc3ccccc32)cc1 [3-[4-(2,3-dihydro-1H-indole-1-sulfonyl)phenyl]-1-(pyridin-3-ylmethyl)urea] | 2 nM | 31 nM |  |
| COc1ncc(S(=O)(=O)c2ccc(NC(=O)NCc3cccnc3)cc2)c(OC)n1 [3-[4-(2,4-dimethoxypyrimidine-5-sulfonyl)phenyl]-1-(pyridin-3-ylmethyl)urea] | 6.7 nM | 21 nM |  |
| COc1ccc2ccccc2c1S(=O)(=O)c1ccc(NC(=O)NCc2cccnc2)cc1 [3-[4-(2-methoxynaphthalene-1-sulfonyl)phenyl]-1-(pyridin-3-ylmethyl)urea] | 2 nM | 12 nM |  |
| COc1ncc(S(=O)(=O)c2ccc(NC(=O)NCc3cccnc3)cc2)cn1 [3-[4-(2-methoxypyrimidine-5-sulfonyl)phenyl]-1-(pyridin-3-ylmethyl)urea] | 8.7 nM | 100 to 1000 nM |  |
| Cc1ncccc1S(=O)(=O)c1ccc(NC(=O)NCc2cccnc2)cc1 [3-[4-(2-methylpyridine-3-sulfonyl)phenyl]-1-(pyridin-3-ylmethyl)urea] | 7.2 nM | 100 to 1000 nM |  |
| O=C(NCc1cccnc1)Nc1ccc(S(=O)(=O)N2CC(F)(F)C2)cc1 [3-[4-(3,3-difluoroazetidine-1-sulfonyl)phenyl]-1-(pyridin-3-ylmethyl)urea] | 59 nM | 7860 nM |  |
| Cc1noc(C)c1S(=O)(=O)c1ccc(NC(=O)NCc2cccnc2)cc1 [3-[4-(3,5-dimethyl-1,2-oxazole-4-sulfonyl)phenyl]-1-(pyridin-3-ylmethyl)urea] | 20 nM | 850 nM |  |
| CC(C)c1ccc(CN2CCN(S(=O)(=O)c3ccc(NC(=O)NCc4cccnc4)cc3)CC2)cc1 [3-[4-(4-{[4-(propan-2-yl)phenyl]methyl[piperazine-1-sulfonyl)phenyl]-1-(pyridin-3-ylmethyl)urea] | 35.8 nM |  | 1000 to 10000 nM |
| O=C(NCc1cccnc1)Nc1ccc(S(=O)(=O)c2cncc(Cl)c2)cc1 [3-[4-(5-chloropyridine-3-sulfonyl)phenyl]-1-(pyridin-3-ylmethyl)urea] | 2.6 nM | 98.2 nM |  |
| O=C(NCc1cccnc1)Nc1ccc(S(=O)(=O)c2cncc(F)c2)cc1 [3-[4-(5-fluoropyridine-3-sulfonyl)phenyl]-1-(pyridin-3-ylmethyl)urea] | 8.7 nM | 100 to 1000 nM |  |
| Cc1ccc(S(=O)(=O)c2ccc(NC(=O)NCc3cccnc3)cc2)s1 [3-[4-(5-methylthiophene-2-sulfonyl)phenyl]-1-(pyridin-3-ylmethyl)urea] | 3 nM | 383 nM |  |
| COc1ccc2cc(S(=O)(=O)c3ccc(NC(=O)NCc4cccnc4)cc3)ccc2c1 [3-[4-(6-methoxynaphthalene-2-sulfonyl)phenyl]-1-(pyridin-3-ylmethyl)urea] | 1.6 nM | 100 to 1000 nM |  |
| COc1ccc(S(=O)(=O)c2ccc(NC(=O)NCc3cccnc3)cc2)cn1 [3-[4-(6-methoxypyridine-3-sulfonyl)phenyl]-1-(pyridin-3-ylmethyl)urea] | 5 nM | 100 to 1000 nM |  |
| Cc1ccc(S(=O)(=O)c2ccc(NC(=O)NCc3cccnc3)cc2)cn1 [3-[4-(6-methylpyridine-3-sulfonyl)phenyl]-1-(pyridin-3-ylmethyl)urea] | 4.9 nM | 100 to 1000 nM |  |
| O=C(Nc1ccc(S(=O)(=O)c2ccccc2)cc1)Nc1ccc2ncccc2c1 [3-[4-(benzenesulfonyl)phenyl]-1-(quinolin-6-yl)urea] | 90 nM | 15900 nM |  |
| O=C(NCc1ccc(-n2cccn2)nc1)Nc1ccc(S(=O)(=O)c2ccccc2)cc1 [3-[4-(benzenesulfonyl)phenyl]-1-{[6-(1H-pyrazol-1-yl)pyridin-3-yl]methyl}urea] | 3790 nM | > 10000 nM |  |
| COCCOc1ccc(CNC(=O)Nc2ccc(S(=O)(=O)c3ccccc3)cc2)cn1 [3-[4-(benzenesulfonyl)phenyl]-1-{[6-(2-methoxyethoxy)pyridin-3-yl]methyl}urea] | 2120 nM | > 10000 nM |  |
| O=C(NCc1cnccn1)Nc1ccc(S(=O)(=O)N2CCCCC2)cc1 [3-[4-(piperidine-1-sulfonyl)phenyl]-1-(pyrazin-2-ylmethyl)urea] | 273 nM | > 30000 nM |  |
| O=C(NCc1cncnc1)Nc1ccc(S(=O)(=O)N2CCCCC2)cc1 [3-[4-(piperidine-1-sulfonyl)phenyl]-1-(pyrimidin-5-ylmethyl)urea] | 1140 nM | > 30000 nM |  |
| CC(NC(=O)Nc1ccc(S(=O)(=O)N2CCCCC2)cc1)c1cccnc1 (stereo not shown) [3-[4-(piperidine-1-sulfonyl)phenyl]-1-[1-(pyridin-3-yl)ethyl]urea] | 22100 nM | > 30000 nM |  |
| O=C(NCc1ccc(C(F)(F)F)nc1)Nc1ccc(S(=O)(=O)N2CCCCC2)cc1 [3-[4-(piperidine-1-sulfonyl)phenyl]-1-{[6-(trifluoromethyl)pyridin-3-yl]methyl]urea] | 189 nM | > 30000 nM |  |

| Compound | IC50 (NAMPT) | IC50 (A2780 cells; Homo sapiens, A2780, 72 h) | IC50 (A2780 cells) |
| --- | --- | --- | --- |
| C[C@H](O)COc1ccccc1NS(=O)(=O)c1ccc(NC(=O)NCc2cccnc2)cc1 [3-[4-({2-[(2S)-2-hydroxypropoxy]phenyl}sulfamoyl)phenyl]-1-(pyridin-3-ylmethyl)urea] | 12 nM | 88 nM |  |
| C[C@H](O)c1cccc(NS(=O)(=O)c2ccc(NC(=O)NCc3cccnc3)cc2)c1 [3-[4-({3-[(1S)-1-hydroxyethyl]phenyl}sulfamoyl)phenyl]-1-(pyridin-3-ylmethyl)urea] | 7 nM | 164 nM |  |
| CN(C)c1ccc(CNS(=O)(=O)c2ccc(NC(=O)NCc3cccnc3)cc2)cc1 [3-[4-({[4-(dimethylamino)phenyl]methyl}sulfamoyl)phenyl]-1-(pyridin-3-ylmethyl)urea] | 3 nM | 148 nM |  |
| NC(=O)c1cccc(S(=O)(=O)c2ccc(NC(=O)NCc3cccnc3)cc2)c1 [3-[(4-{[(pyridin-3-ylmethyl)carbamoyl]amino[benzene)sulfonyl]benzamide] | 8 nM | 1000 to 10000 nM |  |
| O=C(NCc1cncc(Cl)c1)Nc1ccc(S(=O)(=O)N2CCCCC2)cc1 [3-[(5-chloropyridin-3-yl)methyl]-1-[4-(piperidine-1-sulfonyl)phenyl]urea] | 48 nM | 18000 nM |  |
| Nc1ccc(CNC(=O)Nc2ccc(S(=O)(=O)N3CCCCC3)cc2)cn1 [3-[(6-aminopyridin-3-yl)methyl]-1-[4-(piperidine-1-sulfonyl)phenyl]urea] | 8.5 nM | 71.4 nM |  |
| O=C(NCc1ccc(Cl)nc1)Nc1ccc(S(=O)(=O)N2CCCCC2)cc1 [3-[(6-chloropyridin-3-yl)methyl]-1-[4-(piperidine-1-sulfonyl)phenyl]urea] | 8 nM | > 30000 nM |  |
| CCN(CC)C(=O)c1cc(Cl)cc(S(=O)(=O)c2ccc(NC(=O)NCc3cccnc3)cc2)c1 [3-chloro-N,N-diethyl-5-[(4-{[(pyridin-3-ylmethyl)carbamoyl]amino}benzene)sulfonyl]benzamide] | 3.5 nM | 1.7 nM |  |
| CN(C)C(=O)c1cc(F)cc(S(=O)(=O)c2ccc(NC(=O)NCc3cccnc3)cc2)c1 [3-fluoro-N,N-dimethyl-5-[(4-{[(pyridin-3-ylmethyl)carbamoyl]amino}benzene)sulfonyl]benzamide] | 1.5 nM | 13.3 nM |  |
| CN(C)c1ncc(S(=O)(=O)c2ccc(NC(=O)NCc3cccnc3)cc2)cn1 [3-{4-[2-(dimethylamino)pyrimidine-5-sulfonyl]phenyl}-1-(pyridin-3-ylmethyl)urea] | 5.9 nM | 100 to 1000 nM |  |
| CC(C)c1ccc(S(=O)(=O)c2ccc(NC(=O)NCc3cccnc3)cc2)c(Cl)n1 [3-{4-[2-chloro-6-(propan-2-yl)pyridine-3-sulfonyl]phenyl}-1-(pyridin-3-ylmethyl)urea] | 3 nM | 6 nM |  |
| COCCC1CCCN(S(=O)(=O)c2ccc(NC(=O)NCc3cccnc3)cc2)C1 (stereo not shown) [3-{4-[3-(2-methoxyethyl)piperidine-1-sulfonyl]phenyl}-1-(pyridin-3-ylmethyl)urea] | 4 nM | 89 nM |  |
| O=C(NCc1cccnc1)Nc1ccc(S(=O)(=O)c2ccnc(N3CCOCC3)c2Cl)cc1 [3-{4-[3-chloro-2-(morpholin-4-yl)pyridine-4-sulfonyl]phenyl}-1-(pyridin-3-ylmethyl)urea] | 4 nM | 14.2 nM |  |
| Cc1ccc(C)c(N2CCN(S(=O)(=O)c3ccc(NC(=O)NCc4cccnc4)cc3)CC2)c1 [3-{4-[4-(2,5-dimethylphenyl)piperazine-1-sulfonyl]phenyl}-1-(pyridin-3-ylmethyl)urea] | 5 nM | 101 nM |  |
| CCOc1ccccc1N1CCN(S(=O)(=O)c2ccc(NC(=O)NCc3cccnc3)cc2)CC1 [3-{4-[4-(2-ethoxyphenyl)piperazine-1-sulfonyl]phenyl]-1-(pyridin-3-ylmethyl)urea] | 2 nM | 6 nM |  |
| COc1ccccc1N1CCN(S(=O)(=O)c2ccc(NC(=O)NCc3cccnc3)cc2)CC1 [3-{4-[4-(2-methoxyphenyl)piperazine-1-sulfonyl]phenyl}-1-(pyridin-3-ylmethyl)urea] | 7 nM | 35 nM |  |
| Cc1ccccc1N1CCN(S(=O)(=O)c2ccc(NC(=O)NCc3cccnc3)cc2)CC1 [3-{4-[4-(2-methylphenyl)piperazine-1-sulfonyl]phenyl}-1-(pyridin-3-ylmethyl)urea] | 6 nM | 106 nM |  |
| O=C(NCc1cccnc1)Nc1ccc(S(=O)(=O)N2CCN(c3c(Cl)cncc3Cl)CC2)cc1 [3-{4-[4-(3,5-dichloropyridin-4-yl)piperazine-1-sulfonyl]phenyl}-1-(pyridin-3-ylmethyl)urea] | 3 nM | 29 nM |  |
| O=C(NCc1cccnc1)Nc1ccc(S(=O)(=O)N2CCC(O)(c3cccc(Cl)c3)CC2)cc1 [3-{4-[4-(3-chlorophenyl)-4-hydroxypiperidine-1-sulfonyl]phenyl}-1-(pyridin-3-ylmethyl)urea] | 5.2 nM | 956 nM |  |
| O=C(NCc1cccnc1)Nc1ccc(S(=O)(=O)N2CCN(c3ncccc3Cl)CC2)cc1 [3-{4-[4-(3-chloropyridin-2-yl)piperazine-1-sulfonyl]phenyl}-1-(pyridin-3-ylmethyl)urea] | 1 nM | 18 nM |  |
